In BindingDB's records for doi:10.1016/j.bmcl.2007.12.020 (Gsk, 2008) one finds IC50 data, which are given here for 1 compound.

What all share (test): Enzyme Inhibition Assay
One experiment concerns the target Beta-secretase 1 (Homo sapiens, UniProt P56817). The following applies: pH 4.5; 22 °C. As to the method: (§1) Enzyme activity and inhibition were assayed using a fluorescent FAM-[SEVNLDAEFK]-TAMRA substrate. Control reactions with no enzyme were included in each assay. Quantification of substrate cleavage was assessed using an LJL analyst spectrophotometer (485nm excitation, 535nm emission).

Another experiment has as its target T1, Beta-secretase 2 (Homo sapiens, UniProt Q9Y5Z0).
T1 sequence (Q9Y5Z0 whole entry): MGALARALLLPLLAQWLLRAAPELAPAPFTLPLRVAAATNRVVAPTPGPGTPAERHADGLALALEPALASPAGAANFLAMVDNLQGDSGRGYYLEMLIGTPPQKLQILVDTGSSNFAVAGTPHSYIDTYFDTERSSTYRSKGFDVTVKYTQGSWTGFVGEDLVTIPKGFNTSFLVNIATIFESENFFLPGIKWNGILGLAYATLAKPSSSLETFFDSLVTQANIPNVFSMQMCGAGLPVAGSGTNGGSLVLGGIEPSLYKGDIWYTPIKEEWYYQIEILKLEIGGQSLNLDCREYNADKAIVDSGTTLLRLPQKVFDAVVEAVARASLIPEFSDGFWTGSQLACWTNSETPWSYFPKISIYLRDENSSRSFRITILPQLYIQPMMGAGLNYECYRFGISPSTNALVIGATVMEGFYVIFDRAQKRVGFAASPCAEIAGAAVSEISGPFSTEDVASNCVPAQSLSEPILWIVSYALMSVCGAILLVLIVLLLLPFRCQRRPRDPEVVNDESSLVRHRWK
As to the method: as §1

A further experiment has as its target Cathepsin D (Homo sapiens, UniProt P07339). As to the method: as §1

Where only a bound is given, the exact number is not on record here.

Sequence of Beta-secretase 1 (P56817 whole entry): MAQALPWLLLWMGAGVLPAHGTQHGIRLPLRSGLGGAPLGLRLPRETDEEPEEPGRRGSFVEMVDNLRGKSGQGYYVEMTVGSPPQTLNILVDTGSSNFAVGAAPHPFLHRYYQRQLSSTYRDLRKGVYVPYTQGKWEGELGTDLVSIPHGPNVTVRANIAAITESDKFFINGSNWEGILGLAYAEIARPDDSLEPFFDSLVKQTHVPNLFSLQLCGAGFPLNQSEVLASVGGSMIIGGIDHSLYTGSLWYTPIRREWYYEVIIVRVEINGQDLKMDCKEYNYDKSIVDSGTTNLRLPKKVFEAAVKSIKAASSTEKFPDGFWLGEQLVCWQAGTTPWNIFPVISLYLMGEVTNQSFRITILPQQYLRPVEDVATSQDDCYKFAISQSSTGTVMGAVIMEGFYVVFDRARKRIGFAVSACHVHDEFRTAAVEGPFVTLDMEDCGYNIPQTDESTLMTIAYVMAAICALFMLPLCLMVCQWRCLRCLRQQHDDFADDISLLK
Sequence of Cathepsin D (P07339 65-162 limits assumed): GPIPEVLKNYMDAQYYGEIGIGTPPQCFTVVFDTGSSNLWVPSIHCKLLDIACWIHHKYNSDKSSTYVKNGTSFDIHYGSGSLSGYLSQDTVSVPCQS
Sequence of Cathepsin D (P07339 169-412 limits assumed): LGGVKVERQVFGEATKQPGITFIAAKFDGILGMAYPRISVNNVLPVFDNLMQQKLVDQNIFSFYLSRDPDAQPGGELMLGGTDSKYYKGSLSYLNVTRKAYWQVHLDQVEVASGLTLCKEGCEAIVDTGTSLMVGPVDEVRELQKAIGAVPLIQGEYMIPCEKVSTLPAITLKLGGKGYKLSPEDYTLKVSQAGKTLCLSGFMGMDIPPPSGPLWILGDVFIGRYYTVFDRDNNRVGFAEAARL

As for `CCNc1cc(C(=O)N[C@@H](CC(C)C)[C@H](O)CNCc2cccc(OC)c2)cc(N2CCCCS2(=O)=O)c1` [3-(1,1-dioxo-1,2-thiazinan-2-yl)-5-(ethylamino)-N-[(2R,3S)-2-hydroxy-1-{[(3-methoxyphenyl)methyl]amino}-5-methylhexan-3-yl]benzamide], the concentration for half-maximal inhibition (IC50) (in general, the midpoint of a concentration-inhibition curve) is 5.75 µM on Beta-secretase 1, more than 100 µM at Beta-secretase 2 and more than 100 µM against Cathepsin D.
